Measurements as given in ChEMBL document CHEMBL4002566, “S-substituted 3,5-dinitrophenyl 1,3,4-oxadiazole-2-thiols and tetrazole-5-thiols as highly efficient antitubercular agents” (Eur J Med Chem, 2017).
Converted amounts (≈) assume the structure as drawn.

Columns and labels:
Format in all cases: functional
[1] = test system: Mycobacterium tuberculosis; assay: Antimycobacterial activity against multidrug-resistant Mycobacterium tuberculosis 9449/2007 after 14 days by micromethod
[2] = test system: Mycobacterium tuberculosis; assay: Antimycobacterial activity against multidrug-resistant Mycobacterium tuberculosis Praha 131 after 14 days by micromethod
[3] = test system: Mycobacterium tuberculosis; assay: Antimycobacterial activity against multidrug-resistant Mycobacterium tuberculosis 234/2005 after 14 days by micromethod
[4] = test system: Mycobacterium tuberculosis; assay: Antimycobacterial activity against multidrug-resistant Mycobacterium tuberculosis Praha 4 after 14 days by micromethod
[5] = test system: Mycobacterium tuberculosis; assay: Antimycobacterial activity against multidrug-resistant Mycobacterium tuberculosis Praha 1 after 14 days by micromethod
[6] = test system: Mycobacterium tuberculosis; assay: Antimycobacterial activity against multidrug-resistant Mycobacterium tuberculosis Praha 1 after 21 days by micromethod; conditions: Praha 1, 504 h
[7] = test system: Mycobacterium tuberculosis; assay: Antimycobacterial activity against multidrug-resistant Mycobacterium tuberculosis 9449/2007 after 21 days by micromethod; conditions: 9449/2007, 504 h
[8] = test system: Mycobacterium tuberculosis; assay: Antimycobacterial activity against multidrug-resistant Mycobacterium tuberculosis Praha 4 after 21 days by micromethod; conditions: Praha 4, 504 h
[9] = test system: Mycobacterium tuberculosis; assay: Antimycobacterial activity against multidrug-resistant Mycobacterium tuberculosis 8666/2010 after 21 days by micromethod; conditions: 8666/2010, 504 h
[10] = test system: Mycobacterium tuberculosis; assay: Antimycobacterial activity against multidrug-resistant Mycobacterium tuberculosis 234/2005 after 21 days by micromethod; conditions: 234/2005, 504 h
[11] = test system: Mycobacterium tuberculosis; assay: Antimycobacterial activity against multidrug-resistant Mycobacterium tuberculosis Praha 131 after 21 days by micromethod; conditions: Praha 131, 504 h
[12] = test system: Mycobacterium tuberculosis; assay: Antimycobacterial activity against multidrug-resistant Mycobacterium tuberculosis 7357/1998 after 21 days by micromethod; conditions: 7357/1998, 504 h
[13] = test system: Mycobacterium tuberculosis; assay: Antimycobacterial activity against multidrug-resistant Mycobacterium tuberculosis 7357/1998 after 14 days by micromethod
[14] = test system: Mycobacterium tuberculosis; assay: Antimycobacterial activity against multidrug-resistant Mycobacterium tuberculosis 8666/2010 after 14 days by micromethod

Molecule: O=[N+]([O-])c1cc(-c2nnc(SCc3ccc(Br)cc3)o2)cc([N+](=O)[O-])c1
- MIC ([1]; 9449/2007, 336 h): 0.03 µM (≈ 0.0131 µg/mL)
- MIC ([2]; Praha 131, 336 h): 0.03 µM (≈ 0.0131 µg/mL)
- MIC ([3]; 234/2005, 336 h): 0.03 µM (≈ 0.0131 µg/mL)
- MIC ([4]; Praha 4, 336 h): 0.03 µM (≈ 0.0131 µg/mL)
- MIC ([5]; Praha 1, 336 h): 0.03 µM (≈ 0.0131 µg/mL)
- MIC [6]: 0.06 µM (≈ 0.0262 µg/mL)
- MIC [7]: 0.06 µM (≈ 0.0262 µg/mL)
- MIC [8]: 0.06 µM (≈ 0.0262 µg/mL)
- MIC [9]: 0.06 µM (≈ 0.0262 µg/mL)
- MIC [10]: 0.06 µM (≈ 0.0262 µg/mL)
- MIC [11]: 0.06 µM (≈ 0.0262 µg/mL)
- MIC [12]: 0.06 µM (≈ 0.0262 µg/mL)
- MIC ([13]; 7357/1998, 336 h): 0.03 µM (≈ 0.0131 µg/mL)
- MIC ([14]; 8666/2010, 336 h): 0.03 µM (≈ 0.0131 µg/mL)

Molecule: O=[N+]([O-])c1cc(-c2nnc(SCc3ccc(Cl)c(Cl)c3)o2)cc(C(F)(F)F)c1
- MIC ([1]; 9449/2007, 336 h): 0.5 µM (≈ 0.225 µg/mL)
- MIC ([2]; Praha 131, 336 h): 0.5 µM (≈ 0.225 µg/mL)
- MIC ([3]; 234/2005, 336 h): 0.5 µM (≈ 0.225 µg/mL)
- MIC ([4]; Praha 4, 336 h): 0.25 µM (≈ 0.113 µg/mL)
- MIC ([5]; Praha 1, 336 h): 0.5 µM (≈ 0.225 µg/mL)
- MIC [6]: 0.5 µM (≈ 0.225 µg/mL)
- MIC [7]: 0.5 µM (≈ 0.225 µg/mL)
- MIC [8]: 0.5 µM (≈ 0.225 µg/mL)
- MIC [9]: 0.5 µM (≈ 0.225 µg/mL)
- MIC [10]: 0.5 µM (≈ 0.225 µg/mL)
- MIC [11]: 0.5 µM (≈ 0.225 µg/mL)
- MIC [12]: 0.5 µM (≈ 0.225 µg/mL)
- MIC ([13]; 7357/1998, 336 h): 0.5 µM (≈ 0.225 µg/mL)
- MIC ([14]; 8666/2010, 336 h): 0.5 µM (≈ 0.225 µg/mL)

Molecule: O=[N+]([O-])c1cc(-n2nnnc2SCc2ccc(Cl)cc2)cc([N+](=O)[O-])c1
- MIC ([1]; 9449/2007, 336 h): 0.5 µM (≈ 0.196 µg/mL)
- MIC ([2]; Praha 131, 336 h): 0.5 µM (≈ 0.196 µg/mL)
- MIC ([3]; 234/2005, 336 h): 0.5 µM (≈ 0.196 µg/mL)
- MIC ([4]; Praha 4, 336 h): 0.5 µM (≈ 0.196 µg/mL)
- MIC ([5]; Praha 1, 336 h): 0.5 µM (≈ 0.196 µg/mL)
- MIC [6]: 0.5 µM (≈ 0.196 µg/mL)
- MIC [7]: 0.5 µM (≈ 0.196 µg/mL)
- MIC [8]: 0.5 µM (≈ 0.196 µg/mL)
- MIC [9]: 0.5 µM (≈ 0.196 µg/mL)
- MIC [10]: 0.5 µM (≈ 0.196 µg/mL)
- MIC [11]: 0.5 µM (≈ 0.196 µg/mL)
- MIC [12]: 0.5 µM (≈ 0.196 µg/mL)
- MIC ([13]; 7357/1998, 336 h): 0.5 µM (≈ 0.196 µg/mL)
- MIC ([14]; 8666/2010, 336 h): 0.5 µM (≈ 0.196 µg/mL)

Molecule: COc1ccc(CSc2nnc(-c3cc([N+](=O)[O-])cc([N+](=O)[O-])c3)o2)cc1
- MIC ([1]; 9449/2007, 336 h): 0.03 µM (≈ 0.0117 µg/mL)
- MIC ([2]; Praha 131, 336 h): 0.03 µM (≈ 0.0117 µg/mL)
- MIC ([3]; 234/2005, 336 h): 0.03 µM (≈ 0.0117 µg/mL)
- MIC ([4]; Praha 4, 336 h): 0.03 µM (≈ 0.0117 µg/mL)
- MIC ([5]; Praha 1, 336 h): 0.03 µM (≈ 0.0117 µg/mL)
- MIC [6]: 0.06 µM (≈ 0.0233 µg/mL)
- MIC [7]: 0.06 µM (≈ 0.0233 µg/mL)
- MIC [8]: 0.06 µM (≈ 0.0233 µg/mL)
- MIC [9]: 0.06 µM (≈ 0.0233 µg/mL)
- MIC [10]: 0.06 µM (≈ 0.0233 µg/mL)
- MIC [11]: 0.06 µM (≈ 0.0233 µg/mL)
- MIC [12]: 0.06 µM (≈ 0.0233 µg/mL)
- MIC ([13]; 7357/1998, 336 h): 0.03 µM (≈ 0.0117 µg/mL)
- MIC ([14]; 8666/2010, 336 h): 0.03 µM (≈ 0.0117 µg/mL)

Molecule: GENTAMICIN
- MIC [1]: 1 µM
- MIC [2]: > 8 µM
- MIC [3]: 0.25 µM
- MIC [4]: 0.5 µM
- MIC [5]: 1 µM
- MIC [13]: 1 µM
- MIC [14]: 2 µM

Molecule: O=[N+]([O-])c1cc(-c2nnc(SCc3ccccc3)o2)cc(C(F)(F)F)c1
- MIC ([1]; 9449/2007, 336 h): 2 µM (≈ 0.763 µg/mL)
- MIC ([2]; Praha 131, 336 h): 1 µM (≈ 0.381 µg/mL)
- MIC ([3]; 234/2005, 336 h): 1 µM (≈ 0.381 µg/mL)
- MIC ([4]; Praha 4, 336 h): 1 µM (≈ 0.381 µg/mL)
- MIC ([5]; Praha 1, 336 h): 1 µM (≈ 0.381 µg/mL)
- MIC [6]: 1 µM (≈ 0.381 µg/mL)
- MIC [7]: 2 µM (≈ 0.763 µg/mL)
- MIC [8]: 1 µM (≈ 0.381 µg/mL)
- MIC [9]: 2 µM (≈ 0.763 µg/mL)
- MIC [10]: 1 µM (≈ 0.381 µg/mL)
- MIC [11]: 2 µM (≈ 0.763 µg/mL)
- MIC [12]: 2 µM (≈ 0.763 µg/mL)
- MIC ([13]; 7357/1998, 336 h): 1 µM (≈ 0.381 µg/mL)
- MIC ([14]; 8666/2010, 336 h): 1 µM (≈ 0.381 µg/mL)

Molecule: NNC(=O)c1ccncc1 [ISONIAZID]
- MIC ([1]; 9449/2007, 336 h): 64 µM (≈ 8.78 µg/mL)
- MIC ([2]; Praha 131, 336 h): 16 µM (≈ 2.19 µg/mL)
- MIC ([3]; 234/2005, 336 h): 16 µM (≈ 2.19 µg/mL)
- MIC ([4]; Praha 4, 336 h): 16 µM (≈ 2.19 µg/mL)
- MIC ([5]; Praha 1, 336 h): 16 µM (≈ 2.19 µg/mL)
- MIC ([13]; 7357/1998, 336 h): 16 µM (≈ 2.19 µg/mL)
- MIC ([14]; 8666/2010, 336 h): 32 µM (≈ 4.39 µg/mL)

Molecule: CN[C@@H]1[C@H](O[C@H]2[C@H](O[C@H]3[C@H](O)[C@@H](O)[C@H](N=C(N)N)[C@@H](O)[C@@H]3N=C(N)N)O[C@@H](C)[C@]2(O)C=O)O[C@@H](CO)[C@H](O)[C@H]1O [STREPTOMYCIN]
- MIC ([1]; 9449/2007, 336 h): > 32 µM
- MIC ([2]; Praha 131, 336 h): > 32 µM
- MIC ([3]; 234/2005, 336 h): 32 µM (≈ 18.6 µg/mL)
- MIC ([4]; Praha 4, 336 h): > 32 µM
- MIC ([5]; Praha 1, 336 h): 16 µM (≈ 9.31 µg/mL)
- MIC ([13]; 7357/1998, 336 h): > 32 µM
- MIC ([14]; 8666/2010, 336 h): > 32 µM

Molecule: O=[N+]([O-])c1cc(-c2nnc(SCc3ccc(Cl)cc3)o2)cc([N+](=O)[O-])c1
- MIC ([1]; 9449/2007, 336 h): 0.03 µM (≈ 0.0118 µg/mL)
- MIC ([2]; Praha 131, 336 h): 0.03 µM (≈ 0.0118 µg/mL)
- MIC ([3]; 234/2005, 336 h): 0.03 µM (≈ 0.0118 µg/mL)
- MIC ([4]; Praha 4, 336 h): 0.03 µM (≈ 0.0118 µg/mL)
- MIC ([5]; Praha 1, 336 h): 0.03 µM (≈ 0.0118 µg/mL)
- MIC [6]: 0.06 µM (≈ 0.0236 µg/mL)
- MIC [7]: 0.06 µM (≈ 0.0236 µg/mL)
- MIC [8]: 0.06 µM (≈ 0.0236 µg/mL)
- MIC [9]: 0.06 µM (≈ 0.0236 µg/mL)
- MIC [10]: 0.06 µM (≈ 0.0236 µg/mL)
- MIC [11]: 0.06 µM (≈ 0.0236 µg/mL)
- MIC [12]: 0.06 µM (≈ 0.0236 µg/mL)
- MIC ([13]; 7357/1998, 336 h): 0.03 µM (≈ 0.0118 µg/mL)
- MIC ([14]; 8666/2010, 336 h): 0.03 µM (≈ 0.0118 µg/mL)
